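Grown in 96-well plates, cells were treated for 48 hours with each compound at five concentrations. Insufficient inhibition: endpoint recorded as highest concentration tested. TGI: concentration producing complete growth inhibition.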
Tested on: MALME-3M melanoma
Test: growth of human tumour cells (NCI), 48 h

`c1nc(OCC2CCCCC2)c2[nH]cnc2n1` and `C/C(=N\NC(=S)N1CCCCC1)c1nc2ncccc2[nH]1` cannot be ordered by TGI: over 100 µM for the first, over 100 µM for the second.

First: Oc1cn(-c2ccc(Cl)cc2)nc1-c1nnc(-c2ccccc2)o1
Second: O=C(O)c1ccc(Nc2c3ccccc3nc3ccccc23)cc1
The TGI of the first is lower: 31.8 µM for the first, over 100 µM for the second.

Compared with `COc1ccc(N2C(=O)/C(=C(\C)c3cc4ccccc4oc3=O)N=C2c2cc([N+](=O)[O-])ccc2Cl)cc1`, `COc1ccc(C2COc3cc(OC(C)=O)c(OC(C)=O)cc3C2)cc1` (stereo unspecified) is lower in TGI: over 100 µM for the first, 44.8 µM for the second.

First: O=C(O)CC(CC(=O)O)C(=O)O
Second: Cc1cc(C)n(C(=C(C(Cl)=C(Cl)Cl)[N+](=O)[O-])n2nc(C)cc2C)n1
The TGI of the first is higher: over 100 µM for the first, 7.86 µM for the second.

Going from `CC(=O)N(C)c1ccc(Nc2cc(C)[nH]c3ccc4ncnc4c23)cc1` to `CC(C)(C)[Si](OC1CC(n2cnc3c(N)ncnc32)OC1CO)(c1ccccc1)c1ccccc1` (stereo unspecified), the TGI rises from 17.5 µM to 45.9 µM (2.6-fold).

First: FC(F)(F)c1ccc(N=C/C=C(/Nc2ccc(C(F)(F)F)cc2)c2ccc(Cl)cc2)cc1
Second: CCCCN(CCCC)CC(O)c1cc(-c2ccc(C(F)(F)F)cc2)nc(-c2ccc(C(F)(F)F)cc2)c1 (stereo unspecified)
The TGI of the first is lower: 40.4 µM for the first, over 100 µM for the second.

Compared with `NS(=O)(=O)c1ccc(N=Nc2nc3[nH]c(=O)[nH]c(=O)c3[nH]2)cc1`, `CC1=CC(C)C/C=C/C2C3OC3(C)C(C)C3C(Cc4c[nH]c5ccccc45)NC(=O)C23C(=O)C=CC(=O)C1O` (stereo unspecified) is lower in TGI: over 100 µM for the first, 4.19 µM for the second.

`CCOc1cc2c(OCc3ccccc3)cc3c4cc(OC)c(OC)cc4c[n+](C)c3c2cc1OC` was tested, and the TGI was 2.18 µM.

Tested on: COLO 205 colon
Test: growth of human tumour cells (NCI), 48 h

`c1nc(OCC2CCCCC2)c2[nH]cnc2n1` and `C/C(=N\NC(=S)N1CCCCC1)c1nc2ncccc2[nH]1` cannot be ordered by TGI: over 100 µM for the first, over 100 µM for the second.

`Oc1cn(-c2ccc(Cl)cc2)nc1-c1nnc(-c2ccccc2)o1` and `O=C(O)c1ccc(Nc2c3ccccc3nc3ccccc23)cc1` cannot be ordered by TGI: over 49.8 µM for the first, over 100 µM for the second.

Compared with `COc1ccc(N2C(=O)/C(=C(\C)c3cc4ccccc4oc3=O)N=C2c2cc([N+](=O)[O-])ccc2Cl)cc1`, `COc1ccc(C2COc3cc(OC(C)=O)c(OC(C)=O)cc3C2)cc1` (stereo unspecified) is lower in TGI: over 100 µM for the first, 44.4 µM for the second.

Going from `O=C(O)CC(CC(=O)O)C(=O)O` to `Cc1cc(C)n(C(=C(C(Cl)=C(Cl)Cl)[N+](=O)[O-])n2nc(C)cc2C)n1`, the TGI falls from over 100 µM to 3.76 µM.

First: CC(=O)N(C)c1ccc(Nc2cc(C)[nH]c3ccc4ncnc4c23)cc1
Second: CC(C)(C)[Si](OC1CC(n2cnc3c(N)ncnc32)OC1CO)(c1ccccc1)c1ccccc1 (stereo unspecified)
The TGI of the first is 5.5-fold lower: 16 µM for the first, 88.1 µM for the second.

Compared with `FC(F)(F)c1ccc(N=C/C=C(/Nc2ccc(C(F)(F)F)cc2)c2ccc(Cl)cc2)cc1`, `CCCCN(CCCC)CC(O)c1cc(-c2ccc(C(F)(F)F)cc2)nc(-c2ccc(C(F)(F)F)cc2)c1` (stereo unspecified) is higher in TGI: 32.6 µM for the first, over 100 µM for the second.

Compared with `NS(=O)(=O)c1ccc(N=Nc2nc3[nH]c(=O)[nH]c(=O)c3[nH]2)cc1`, `CC1=CC(C)C/C=C/C2C3OC3(C)C(C)C3C(Cc4c[nH]c5ccccc45)NC(=O)C23C(=O)C=CC(=O)C1O` (stereo unspecified) is lower in TGI: over 100 µM for the first, 2 µM for the second.

`CCOc1cc2c(OCc3ccccc3)cc3c4cc(OC)c(OC)cc4c[n+](C)c3c2cc1OC` gave a TGI of 0.481 µM.

Tested on: TK-10 renal
Test: growth of human tumour cells (NCI), 48 h

First: c1nc(OCC2CCCCC2)c2[nH]cnc2n1
Second: C/C(=N\NC(=S)N1CCCCC1)c1nc2ncccc2[nH]1
The TGI of the first is higher: over 100 µM for the first, 68.4 µM for the second.

Compared with `Oc1cn(-c2ccc(Cl)cc2)nc1-c1nnc(-c2ccccc2)o1`, `CC(C)(C)[Si](OC1CC(n2cnc3c(N)ncnc32)OC1CO)(c1ccccc1)c1ccccc1` (stereo unspecified) is 14-fold higher in TGI: 3.76 µM for the first, 53.4 µM for the second.

Compared with `O=C(O)CC(CC(=O)O)C(=O)O`, `Cc1cc(C)n(C(=C(C(Cl)=C(Cl)Cl)[N+](=O)[O-])n2nc(C)cc2C)n1` is lower in TGI: over 100 µM for the first, 9.36 µM for the second.

`CC(=O)N(C)c1ccc(Nc2cc(C)[nH]c3ccc4ncnc4c23)cc1` and `FC(F)(F)c1ccc(N=C/C=C(/Nc2ccc(C(F)(F)F)cc2)c2ccc(Cl)cc2)cc1` are within 1.5-fold of each other in TGI: 48.3 µM for the first, 69.1 µM for the second.

`CCCCN(CCCC)CC(O)c1cc(-c2ccc(C(F)(F)F)cc2)nc(-c2ccc(C(F)(F)F)cc2)c1` (stereo unspecified) and `CCOc1cc2c(OCc3ccccc3)cc3c4cc(OC)c(OC)cc4c[n+](C)c3c2cc1OC` cannot be ordered by TGI: over 100 µM for the first, over 62.6 µM for the second.

Going from `NS(=O)(=O)c1ccc(N=Nc2nc3[nH]c(=O)[nH]c(=O)c3[nH]2)cc1` to `CC1=CC(C)C/C=C/C2C3OC3(C)C(C)C3C(Cc4c[nH]c5ccccc45)NC(=O)C23C(=O)C=CC(=O)C1O` (stereo unspecified), the TGI falls from over 100 µM to 3.39 µM.

Tested on: SF-539 CNS
Test: growth of human tumour cells (NCI), 48 h

Compared with `c1nc(OCC2CCCCC2)c2[nH]cnc2n1`, `C/C(=N\NC(=S)N1CCCCC1)c1nc2ncccc2[nH]1` is lower in TGI: over 100 µM for the first, 21.3 µM for the second.

Compared with `Oc1cn(-c2ccc(Cl)cc2)nc1-c1nnc(-c2ccccc2)o1`, `O=C(O)c1ccc(Nc2c3ccccc3nc3ccccc23)cc1` is higher in TGI: 27 µM for the first, over 100 µM for the second.

Compared with `COc1ccc(N2C(=O)/C(=C(\C)c3cc4ccccc4oc3=O)N=C2c2cc([N+](=O)[O-])ccc2Cl)cc1`, `COc1ccc(C2COc3cc(OC(C)=O)c(OC(C)=O)cc3C2)cc1` (stereo unspecified) is lower in TGI: over 100 µM for the first, 37.8 µM for the second.

Compared with `O=C(O)CC(CC(=O)O)C(=O)O`, `Cc1cc(C)n(C(=C(C(Cl)=C(Cl)Cl)[N+](=O)[O-])n2nc(C)cc2C)n1` is lower in TGI: over 100 µM for the first, 16.4 µM for the second.

Going from `CC(=O)N(C)c1ccc(Nc2cc(C)[nH]c3ccc4ncnc4c23)cc1` to `CC(C)(C)[Si](OC1CC(n2cnc3c(N)ncnc32)OC1CO)(c1ccccc1)c1ccccc1` (stereo unspecified), the TGI rises from 18.6 µM to 36.7 µM (2-fold).

First: FC(F)(F)c1ccc(N=C/C=C(/Nc2ccc(C(F)(F)F)cc2)c2ccc(Cl)cc2)cc1
Second: CCCCN(CCCC)CC(O)c1cc(-c2ccc(C(F)(F)F)cc2)nc(-c2ccc(C(F)(F)F)cc2)c1 (stereo unspecified)
The TGI of the first is lower: 31.3 µM for the first, over 100 µM for the second.

Going from `NS(=O)(=O)c1ccc(N=Nc2nc3[nH]c(=O)[nH]c(=O)c3[nH]2)cc1` to `CC1=CC(C)C/C=C/C2C3OC3(C)C(C)C3C(Cc4c[nH]c5ccccc45)NC(=O)C23C(=O)C=CC(=O)C1O` (stereo unspecified), the TGI falls from over 100 µM to 29.8 µM.

`CCOc1cc2c(OCc3ccccc3)cc3c4cc(OC)c(OC)cc4c[n+](C)c3c2cc1OC` showed a TGI of 5.43 µM.

Tested on: OVCAR-4 ovarian
Test: growth of human tumour cells (NCI), 48 h

Going from `c1nc(OCC2CCCCC2)c2[nH]cnc2n1` to `CC(C)(C)[Si](OC1CC(n2cnc3c(N)ncnc32)OC1CO)(c1ccccc1)c1ccccc1` (stereo unspecified), the TGI falls from over 100 µM to 28.5 µM.

`Oc1cn(-c2ccc(Cl)cc2)nc1-c1nnc(-c2ccccc2)o1` and `O=C(O)c1ccc(Nc2c3ccccc3nc3ccccc23)cc1` cannot be ordered by TGI: over 100 µM for the first, over 100 µM for the second.

First: COc1ccc(N2C(=O)/C(=C(\C)c3cc4ccccc4oc3=O)N=C2c2cc([N+](=O)[O-])ccc2Cl)cc1
Second: COc1ccc(C2COc3cc(OC(C)=O)c(OC(C)=O)cc3C2)cc1 (stereo unspecified)
The TGI of the first is higher: over 100 µM for the first, 36.8 µM for the second.

Compared with `O=C(O)CC(CC(=O)O)C(=O)O`, `Cc1cc(C)n(C(=C(C(Cl)=C(Cl)Cl)[N+](=O)[O-])n2nc(C)cc2C)n1` is lower in TGI: over 100 µM for the first, 7.47 µM for the second.

`CC(=O)N(C)c1ccc(Nc2cc(C)[nH]c3ccc4ncnc4c23)cc1` and `FC(F)(F)c1ccc(N=C/C=C(/Nc2ccc(C(F)(F)F)cc2)c2ccc(Cl)cc2)cc1` are within 1.5-fold of each other in TGI: 34 µM for the first, 49.8 µM for the second.

`CCCCN(CCCC)CC(O)c1cc(-c2ccc(C(F)(F)F)cc2)nc(-c2ccc(C(F)(F)F)cc2)c1` (stereo unspecified) and `CCOc1cc2c(OCc3ccccc3)cc3c4cc(OC)c(OC)cc4c[n+](C)c3c2cc1OC` cannot be ordered by TGI: over 100 µM for the first, over 100 µM for the second.

Going from `NS(=O)(=O)c1ccc(N=Nc2nc3[nH]c(=O)[nH]c(=O)c3[nH]2)cc1` to `CC1=CC(C)C/C=C/C2C3OC3(C)C(C)C3C(Cc4c[nH]c5ccccc45)NC(=O)C23C(=O)C=CC(=O)C1O` (stereo unspecified), the TGI falls from over 100 µM to 24.3 µM.

Reference: PubChem BioAssay (NCI)
